According to patent publication US11098061B2 (Celgene CAR LLC, priority 2013, dated 2021):

Experiments:
[1] = molecular target: p38a activated, mitogen-activated protein kinase-activated protein kinase 2 (MAPKAP-K2 or MK-2) enzyme (Homo sapiens (Human), UniProt P49137); test: MK2 Omnia continuous-read kinase assay for compound potency; format: biochemical; conditions: [MK-2]=0.4 nM, [ATP]=1.0 mM, [ST3-Sox]=10 μM
Text: The protocol below describes a continuous-read kinase assay optimized to measure potency of compounds against p38a activated, mitogen-activated protein kinase-activated protein kinase 2 (MAPKAP-K2 or MK-2) enzyme. The mechanics of the assay platform are best described by the vendor (Invitrogen, Carlsbad, Calif.) on their website at the following URL: invitrogen.com/search/global/searchAction. action?resultPage=1 &resultsPerPage=15 &query=om nia&personaFilterTerm=Support+%26+Troubleshoot
Kinase reactions were started with the addition of 40 μL of MK-2 enzyme and monitored every 71 seconds for 30-240 minutes at λex360/λem485 in a Synergy^2, Synergy^4 or Synergy H^4 plate reader from BioTek (Winooski, Vt.). […] Initial velocity (0 minutes to +30 minutes) from each reaction was estimated from the slope of a plot of relative fluorescence units vs time (minutes) and normalized to the no enzyme and no inhibitor control groups for % Inhibition. The resulting % Inhibition values were then plotted against inhibitor concentration to estimate IC50 from log[Inhibitor] vs Response, Variable Slope model in GraphPad Prism from GraphPad Software (San Diego, Calif.).
[MK-2]=0.4 nM, [ATP]=1.0 mM and [ST3-Sox]=10 μM (ATP ^appKM=8-10 μM)

[2] = molecular target: T1, MK2 (Homo sapiens (Human), UniProt P49137); test: MK2 cellular assay (Hsp27 phosphorylation in Thp-1 cells); format: cell-based; conditions: differentiated Thp-1 cells, compound 1 hour, 50 ng/ml LPS 15 minutes, phosphorylation of Hsp27; read-out: MK2EC50
Protocol: Compounds were assayed in Thp-1 human acute monocytic leukemia cells to measure inhibition of MK2 activity. Thp-1 were grown in suspension in T225 flasks. Two days prior to assay, Thp-1 cells were spun down, counted and plated at 1×10^6 cells per well of a 12 well plate in complete media containing 10 ng/ml PMA (phorbol myristate acetate) to differentiate the cells. On day of assay, cells were washed with complete media, and compound was added to differentiated Thp-1 cells for 1 hour. Cells were washed again, and complete media containing 50 ng/ml LPS (lipopolysaccharide) was added. After 15 minutes, cells were washed once with PBS and lysed on ice with BioRad Bioplex lysis buffer. 20 μg total protein from lysates were loaded on gel and blots were probed for phosphorylation of the MK2 substrate Hsp27. Dose response inhibition of MK2 signaling in differentiated Thp-1 cells was used to determine the EC50 for compounds reported in Table A in the column entitled “MK2 EC50.”

[3] = molecular target: T1, MK2; test: MK2 modification assessment by whole protein mass spectrometry; format: binding; conditions: intact MK2, 60 min, 10-fold excess of compound to protein
Protocol: Modification of MK2 is measured by whole protein MS analysis. […] 5 μL aliquots of the samples were diluted with 15 μL of 0.2% TFA prior to micro C4 ZipTipping directly onto the MALDI target using sinapinic acid as the desorption matrix (10 mg/ml in 0.1% TFA:Acetonitrile 50:50). Analysis was performed on a AB Sciex 4800 MALDI TOF/TOF retro fitted with an HM2 detector (CovalX). Percent modification of target MK2 (i.e., the percent of total MK2 modified by the test compound) for each compound was calculated by subtracting the centroid mass of the compound treated MK2 from the centroid mass of the control MK2 and dividing that value with the mass of the compound.

T1 sequence (P49137 whole entry): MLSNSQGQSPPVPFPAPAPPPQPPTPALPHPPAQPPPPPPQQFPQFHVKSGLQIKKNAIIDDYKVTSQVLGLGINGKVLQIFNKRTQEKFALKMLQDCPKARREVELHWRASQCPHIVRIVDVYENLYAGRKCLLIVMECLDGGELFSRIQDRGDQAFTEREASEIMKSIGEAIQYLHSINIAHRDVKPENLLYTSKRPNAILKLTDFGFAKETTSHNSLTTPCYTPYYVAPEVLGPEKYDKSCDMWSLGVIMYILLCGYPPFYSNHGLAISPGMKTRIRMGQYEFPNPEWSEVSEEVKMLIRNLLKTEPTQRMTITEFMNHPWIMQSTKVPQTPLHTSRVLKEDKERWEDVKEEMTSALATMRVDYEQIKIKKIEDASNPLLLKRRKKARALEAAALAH
p38a activated, mitogen-activated protein kinase-activated protein kinase 2 (MAPKAP-K2 or MK-2) enzyme, sequence (P49137 whole entry): as above

Compound	IC50 [1] [nM]	EC50 [2] [nM]	MK2 Mass Mod [3]
C=CC(=O)Nc1ccccc1C(=O)Nc1cc(-c2cc3c([nH]2)C2(CCCNC2)CNC3=O)ccn1 (racemic) [Compound I-4, 2-acrylamido-N-(4-(4′-oxo-1′,4′,5′,6′-tetrahydrospiro[piperidine-3,7′-pyrrolo[3,2-c]pyridin]-2′-yl)pyridin-2-yl)benzamide]	< 100	> 1000	E (mass modification of ≥70%)
C=CC(=O)Nc1cc(-c2nccc(-c3cc4c([nH]3)C3(CCCNC3)CNC4=O)n2)ccc1OCCOC (racemic) [Compound I-7, N-(2-(2-methoxyethoxy)-5-(4-(4′-oxo-1′,4′,5′,6′-tetrahydrospiro[piperidine-3,7′-pyrrolo[3,2-c]pyridin]-2′-yl)pyrimidin-2-yl)phenyl)acrylamide]	< 100	501 to 999	E (mass modification of ≥70%)
C=CC(=O)Nc1cc(C(=O)Nc2cc(-c3cc4c([nH]3)C3(CCCNC3)CNC4=O)ccn2)ccc1OC(F)(F)F (racemic) [Compound I-23, 3-acrylamido-N-(4-(4′-oxo-1′,4′,5′,6′-tetrahydrospiro[piperidine-3,7′-pyrrolo[3,2-c]pyridin]-2′-yl)pyridin-2-yl)-4-(trifluoromethoxy)benzamide]	< 100	501 to 999	E (mass modification of ≥70%)
C=CC(=O)N1CC(C)Oc2ccc(NC(=O)c3ccc4cc5n(c4c3)C3(CCC3)CNC5=O)cc21 (racemic) [Compound V-50, N-(4-acryloyl-2-methyl-3,4-dihydro-2H-benzo[b][1,4]oxazin-6-yl)-1′-oxo-2′,3′-dihydro-1′H-spiro[cyclobutane-1,4′-pyrazino[1,2-a]indole]-7′-carboxamide (racemic)]	< 100	101 to 500	E (mass modification of ≥70%)
C=CC(=O)NC1CCCC1NC(=O)c1ccc2cc3n(c2c1)C1(CCC1)CNC3=O (racemic) [Compound V-56, N-trans-(2-acrylamidocyclopentyl)-1′-oxo-2′,3′-dihydro-1′H-spiro[cyclobutane-1,4′-pyrazino[1,2-a]indole]-7′-carboxamide (racemic)]	> 1000	> 1000	F (mass modification of 31-69%)
C=CC(=O)Nc1cc(-c2cc(-c3cc4c([nH]3)C3(CCCNC3)CNC4=O)ccn2)ccc1OCCOC (stereo not drawn) [Compound I-3]	< 100	> 1000	E (mass modification of ≥70%)
C=CC(=O)Nc1cc(-c2cc(-c3cc4c([nH]3)C3(CCCNC3)CNC4=O)ccn2)ccc1F (stereo not drawn) [Compound I-8]	< 100	> 1000	E (mass modification of ≥70%)
C=CC(=O)Nc1cc(-c2cc(-c3cc4c([nH]3)C3(CCCNC3)CNC4=O)ccn2)cc(C(F)(F)F)c1 (stereo not drawn) [Compound I-9]	< 100	> 1000	E (mass modification of ≥70%)
C=CC(=O)N1CCOc2ccc(NC(=O)c3ccc4cc5n(c4c3)CCNC5=O)cc21 [Compound V-6, N-(4-acryloyl-3,4-dihydro-2H-benzo[b][1,4]oxazin-6-yl)-1-oxo-1,2,3,4-tetrahydropyrazino[1,2-a]indole-7-carboxamide]	< 100	> 1000	E (mass modification of ≥70%)
C=CC(=O)Nc1cc(NC(=O)c2ccc3cc4n(c3c2)C2(CCC2)CNC4=O)ccc1N1CCN(C)CC1 [Compound V-15, N-(3-acrylamido-4-(4-methylpiperazin-1-yl)phenyl)-1′-oxo-2′,3′-dihydro-1′H-spiro[cyclobutane-1,4′-pyrazino[1,2-a]indole]-7′-carboxamide]	< 100	101 to 500	E (mass modification of ≥70%)
C=CC(=O)N1CCc2ccc(NC(=O)c3ccc4cc5n(c4c3)C3(CCC3)CNC5=O)cc21 [Compound V-45, N-(1-acryloylindolin-6-yl)-1′-oxo-2′,3′-dihydro-1′H-spiro[cyclobutane-1,4′-pyrazino[1,2-a]indole]-7′-carboxamide]	< 100	101 to 500	E (mass modification of ≥70%)
C=CC(=O)N1CC(C)(C)Oc2ccc(NC(=O)c3ccc4cc5n(c4c3)C3(CCC3)CNC5=O)cc21 [Compound V-51, N-(4-acryloyl-2,2-dimethyl-3,4-dihydro-2H-benzo[b][1,4]oxazin-6-yl)-1′-oxo-2′,3′-dihydro-1′H-spiro[cyclobutane-1,4′-pyrazino [1,2-a]indole]-7′-carboxamide]	< 100	101 to 500	E (mass modification of ≥70%)
C=CC(=O)Nc1cc(NC(=O)c2ccc3cc4n(c3c2)C2(CCC2)CNC4=O)ccc1F [Compound V-54, N-(3-acrylamido-4-fluorophenyl)-1′-oxo-2′,3′-dihydro-1′H-spiro[cyclobutane-1,4′-pyrazino[1,2-a]indole]-7′-carboxamide]	101 to 500	101 to 500	E (mass modification of ≥70%)
C=CC(=O)Nc1ncccc1NC(=O)c1ccc2cc3n(c2c1)C1(CCC1)CNC3=O [Compound V-57, N-(2-acrylamidopyridin-3-yl)-1′-oxo-2′,3′-dihydro-1′H-spiro[cyclobutane-1,4′-pyrazino[1,2-a]indole]-7′-carboxamide]	< 100	101 to 500	E (mass modification of ≥70%)
C=CC(=O)Nc1cc(C2CCN(C)CC2)cc2oc(-c3ccc4cc5n(c4c3)C3(CCC3)CNC5=O)nc12 [Compound V-61, N-(6-(1-methylpiperidin-4-yl)-2-(1′-oxo-2′,3′-dihydro-1′H-spiro[cyclobutane-1,4′-pyrazino [1,2-a]indol]-7′-yl)benzo[d]oxazol-4-yl)acrylamide]	< 100	< 100	E (mass modification of ≥70%)
C=CC(=O)Nc1cc(C)cc(-c2cc3c(ccc4c5c([nH]c43)CCC5=O)cn2)c1 [II-e-22, N-(3-methyl-5-(7-oxo-7,8,9,1-tetrahydrocyclopenta[4,5]pyrrolo[2,3-f]isoquinolin-2-yl)phenyl)acrylamide]	101 to 500	101 to 500	–
C=CC(=O)N1CCC[C@H](NC(=O)c2ccc3sc4c(c3c2)NC[C@@H](C)NC4=O)C1 [III-41]	–	101 to 500	–
C=CS(=O)(=O)N1CCC[C@H](NC(=O)c2ccc3sc4c(c3c2)NC[C@@H](C)NC4=O)C1 [III-43]	–	< 100	–
C=CC(=O)Nc1cc(-c2ccc3c(ccc4sc5c(c43)NC[C@@H](C)NC5=O)n2)ccc1OC(F)(F)F [III-45, (R)—N-(5-(10-methyl-8-oxo-9,10,11,12-tetrahydro-8H-[1,4]diazepino[5′,6′:4,5]thieno[3,2-f]quinolin-3-yl)-2-(trifluoromethoxy)phenyl)acrylamide]	< 100	< 100	–
C=CC(=O)Nc1cc(-c2cc(-c3cc4c(s3)C(=O)N[C@H](C)CN4)ccn2)ccc1OCCOC [III-d-1, (R)—N-(2-(2-methoxyethoxy)-5-(4-(3-methyl-5-oxo-2,3,4,5-tetrahydro-1H-thieno[3,2-e][1,4]diazepin-7-yl)pyridin-2-yl)phenyl)acrylamide]	> 1000	–	E (mass modification of ≥70%)
C=CC(=O)Nc1cc(Nc2c(C)c(NC3CCCNC3)nc3ccnn23)ccc1OCC (stereo not drawn) [IV-1, N-(2-ethoxy-5-((6-methyl-5-(piperidin-3-ylamino)pyrazolo [1,5-a]pyrimidin-7-yl)amino)phenyl)acrylamide]	501 to 999	–	G (mass modification ≤30%)
C=CC(=O)Nc1cc(-c2cc(Nc3c(N[C@H](C)c4ccccc4)c(=O)c3=O)ccn2)ccc1OC [VI-9, (R)—N-(5-(4-((3,4-dioxo-2-((1-phenylethyl)amino)cyclobut-1-en-1-yl)amino)pyridin-2-yl)-2-methoxyphenyl)acrylamide]	> 1000	–	G (mass modification ≤30%)
